Here are results for 16 compounds from US10000473B2, “Indazole derivatives useful as glucagon receptor antagonists” (Janssen Pharmaceutica NV, priority 2016, dated 2018).

Where “and” joins values, the source holds several entries; their conditions need not be identical. Equal entries are not always repeated.

Experiment [1] concerns GCG-mediated increases in blood glucose. In words: Glucagon challenge in vivo assay measuring blood glucose (normal dog glucagon challenge test). Conditions: fasted male beagle dogs; for inhibition of GCG-mediated increases in blood glucose vs vehicle: glucagon 5 μg/kg intramuscular 90 min after dosing. How it is done: Glucagon Challenge In Vivo Assay Measuring Blood Glucose
The efficacy of a glucagon receptor antagonist was evaluated using a normal dog glucagon challenge test. Male beagle dogs were overnight fasted prior to the study. Test compound (at 3 mg/kg and 10 mg/kg for Compound #196 and at 10 mg/kg for Compounds #180, #248 and #253) or vehicle (0.5% hydroxypropyl methylcellulose) was dosed via oral gavage. Ninety minutes later, the dogs (1.5 years old, ˜9 Kg) were submitted to a glucagon challenge test by a single intramuscular injection of glucagon (Glucagon, rDNA origin, Eli Lilly, Indianapolis, Ind.) at dose of 5 μg/kg. Blood glucose levels were determined at times −10 min, 0 min (on challenge), 10 min, 20 min, 30 min, and 60 min after glucagon injection.

The next experiment addresses T1, human GCGR (Homo sapiens, UniProt P47871).
T1 construct: expressed in transfected cells; host or cells: HEK293 (hGluc-1HEK), pcDNA3.1, G418 selection
In words: Cellular functional assay, cAMP readout (glucagon-stimulated cAMP, LANCE TR-FRET). Format: cell-based. Conditions: HEK293 cells stably expressing full-length human GCGR; glucagon 100 pM; IC50 converted to Ki; read-out: Inhibition of cAMP Ki. In general terms: TR-FRET usually uses a lanthanide donor and a delayed reading to cut background.

Setting [2] is: 10 mg/kg oral gavage, glucagon 5 μg/kg intramuscular.

T1 sequence (P47871 26-477): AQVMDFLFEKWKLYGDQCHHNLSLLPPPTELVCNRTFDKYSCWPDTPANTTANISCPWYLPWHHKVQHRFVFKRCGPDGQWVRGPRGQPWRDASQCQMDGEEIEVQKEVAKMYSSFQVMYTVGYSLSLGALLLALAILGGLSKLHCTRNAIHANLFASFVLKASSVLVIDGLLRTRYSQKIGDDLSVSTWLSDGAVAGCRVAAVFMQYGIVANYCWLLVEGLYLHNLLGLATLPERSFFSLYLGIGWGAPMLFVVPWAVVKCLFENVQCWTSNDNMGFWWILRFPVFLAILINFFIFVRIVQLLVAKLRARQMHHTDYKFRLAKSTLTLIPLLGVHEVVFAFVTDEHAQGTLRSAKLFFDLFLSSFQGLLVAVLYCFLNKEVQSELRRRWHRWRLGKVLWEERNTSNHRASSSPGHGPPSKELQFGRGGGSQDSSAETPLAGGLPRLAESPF

Usually Ki stands for a measure of affinity in units of concentration, obtained from inhibition or displacement. Regarding `Cc1cc(C(F)(F)F)ccc1-c1cc2cn([C@@H](CC(C)C)c3ccc(C(=O)NCCC(=O)O)cc3)nc2cc1C` [Compound #248, 3-[[4-[(1 S)-3-Methyl-1-[6-methyl-5-[2-methyl-4-(trifluoromethyl)phenyl]indazol-2-yl]butyl]benzoyl]amino]propanoic acid], the “inhibition of GCG-mediated increases in blood glucose vs vehicle” value (shortened to “inhibition of GCG-mediated increases”) in experiment [1] (10 mg/kg oral gavage) amounted to 15%. Moreover, at human GCGR, the Ki came to 25 nM. The matching figures for `Cc1cc(C(F)(F)F)ccc1-c1cc2cnn([C@@H](CC(C)C)c3ccc(C(=O)NCCC(=O)O)cc3)c2cc1C` [Compound #253, 3-[[4-[(1S)-3-Methyl-1-[6-methyl-5-[2-methyl-4-(trifluoromethyl)phenyl]indazol-1-yl]butyl]benzoyl]amino]propanoic acid]: 17.1% and 14 nM. Regarding `Cc1c(-c2ccc(C(F)(F)F)cc2Cl)ccc2nn([C@@H](CC(C)C)c3ccc(C(=O)NCCC(=O)O)cc3)cc12` [Compound #180, 3-[[4-[(1S)-1-[5-[2-Chloro-4-(trifluoromethyl)phenyl]-4-methyl-indazol-2-yl]-3-methyl-butyl]benzoyl]amino]propanoic acid], in experiment [1] (setting [2]), the “blood glucose levels during glucagon challenge compared with vehicle treated group” value is listed as “markedly reduced blood glucose levels” and the “duration of blood glucose reducing effect after glucagon injection” value is “more than 60 min”. In experiment [1] (10 mg/kg oral gavage), the “inhibition of GCG-mediated increases” value is recorded as 28.9%. The Ki on human GCGR is 25 nM (2×) and 20 nM. `COc1c(-c2ccc(Cl)cc2C)ccc2nn(C(CC(C)C)c3ccc(C(=O)NCCC(=O)O)cc3)cc12` (centres unmarked) [Compound #64, 3-(4-(1-(5-(4-Chloro-2-methylphenyl)-4-methoxy-2H-indazol-2-yl)-3-methylbutyl)benzamido)propanoic acid]: the Ki at human GCGR turned out to be 37 nM.

Take `CC(C)CC(c1ccc(C(=O)NCCC(=O)O)cc1)n1cc2cc(-c3ccc4cnn(C)c4c3)ccc2n1` (centres unmarked) [compound 80]: the Ki on human GCGR came to 340 nM. Consider `Cc1cc2nn(C(CC(C)C)c3ccc(C(=O)NCCC(=O)O)nc3)cc2cc1-c1ccc(C(F)(F)F)cc1Cl` (centres unmarked) [Compound #242, 3-[[5-[1-[5-[2-Chloro-4-(trifluoromethyl)phenyl]-6-methyl-indazol-2-yl]-3-methyl-butyl]pridine-2-carbonyl]amino]propanoic acid], for which the inhibition constant Ki on human GCGR came out at 65 nM. With `CC(C)CC(c1ccc(C(=O)NCCC(=O)O)cc1)n1ncc2cc(-c3ccc4ccccc4c3)ccc21` (centres unmarked) [compound 71], the Ki at human GCGR was determined as 190 nM.

For the compound `CCOc1c(-c2ccc(C(F)(F)F)cc2Cl)ccc2nn(C(CC(C)C)c3ccc(C(=O)NCCC(=O)O)nc3)cc12` (centres unmarked) [Compound #205, 3-(5-(1-(5-(2-Chloro-4-(trifluoromethyl)phenyl)-4-ethoxy-2H-indazol-2-yl)-3-methylbutyl)picolinamido)propanoic acid], on human GCGR, the Ki was 57 nM. Same read-out and setting: to `O=C(O)CCNC(=O)c1ccc(C(CC2CC2)n2cc3cc(-c4ccc(C(F)(F)F)cc4)ccc3n2)cc1` (centres unmarked) [compound 139] belongs 200 nM; to `CC(C)CC(c1ccc(C(=O)NCCC(=O)O)cc1)n1cc2cc(-c3ccc(Cl)cc3Cl)ccc2n1` (centres unmarked) [Compound #226, 3-(4-(1-(5-(2,4-Dichlorophenyl)-2H-indazol-2-yl)-3-methylbutyl)benzamido)propanoic acid], 242 nM; to `O=C(O)CCNC(=O)c1ccc(C(CC2CCCC2)n2cc3cc(-c4ccc(C(F)(F)F)cc4)ccc3n2)cc1` (centres unmarked) [compound 254], 90 nM. Take `Cc1cc2c(cnn2[C@@H](CC(C)C)c2ccc(C(=O)NCCC(=O)O)cc2)cc1-c1ccc(C(F)(F)F)cc1Cl` [Compound #196, 3-[[4-[(1S)-1-[5-[2-Chloro-4-(trifluoromethyl)phenyl]-6-methyl-indazol-1-yl]-3-methyl-butyl]benzoyl]amino]propanoic acid]: the “inhibition of GCG-mediated increases” value was found to be 5.9% in experiment [1] (3 mg/kg oral gavage) and 23.9% in experiment [1] (10 mg/kg oral gavage). Besides, the Ki on human GCGR stood at 32 nM. Turning to `O=C(O)CCNC(=O)c1ccc(C(CCCC(F)(F)F)n2ncc3cc(-c4ccc(C(F)(F)F)cc4)ccc32)cc1` (centres unmarked) [compound 234], the Ki at human GCGR came to 275 nM. Still for that read-out and setting: to `CC(C)CC(c1ccc(C(=O)NCCC(=O)O)cc1)n1ncc2cc(-c3cnc4ccccc4c3)ccc21` (centres unmarked) [compound 46] belongs 750 nM. Regarding `CC(C)CC(c1ccc(C(=O)NCCC(=O)O)cc1)n1ncc2cc(-c3cc4cc(F)ccc4s3)ccc21` (centres unmarked) [compound 172], the Ki at human GCGR is 260 nM. As for `CC(C)CC(c1ccc(C(=O)NCCC(=O)O)cc1)n1ncc2cc(-c3cc4ccc(F)cc4s3)ccc21` (centres unmarked) [compound 126], at human GCGR, the Ki is 280 nM.
